Assay results published in patent US20180008587A1, “THIOHYDANTOIN ANDROGEN RECEPTOR ANTAGONISTS FOR THE TREATMENT OF CANCER” (Jaressen Pharmaceutica NV, priority 2016, published 2018).

How the values were obtained:
AR-VP16 = molecular target: T1, AR-VP16 (Homo sapiens, UniProt P10275); experiment: AR-VP16 DNA binding assay, HepG2; format: cell-based; conditions: HepG2, antagonist mode, 90 pM R1881, 48 hours; read-out: IC50 VP16 WT
T1 sequence (P10275 560-920 limits assumed): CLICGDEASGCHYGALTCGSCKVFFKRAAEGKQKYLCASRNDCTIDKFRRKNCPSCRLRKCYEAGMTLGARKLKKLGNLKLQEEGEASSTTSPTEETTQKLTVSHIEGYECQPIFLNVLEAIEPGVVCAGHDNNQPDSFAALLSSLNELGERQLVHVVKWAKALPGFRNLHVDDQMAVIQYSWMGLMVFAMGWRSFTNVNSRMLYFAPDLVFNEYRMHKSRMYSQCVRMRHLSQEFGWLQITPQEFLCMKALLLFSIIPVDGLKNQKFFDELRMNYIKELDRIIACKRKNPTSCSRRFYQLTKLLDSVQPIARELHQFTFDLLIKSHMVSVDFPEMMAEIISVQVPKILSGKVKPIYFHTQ
Procedure: (§1) HepG2 cells were maintained in EMEM supplemented with 10% FBS. One day before transfection, the media was changed to EMEM with 10% CSS. […] Cells were then trypsinized, counted and resuspended at 500,000 cells/mL. For agonist mode, the compounds were serially diluted and 50 μL of the compound was added per well. 50 μL of the cells were added to each well and incubated for 48 hours. For antagonist mode, a final concentration of 90 pM (VP16 AR) or 1 nM (VP16 F876L) R1881 was added to the plate and incubated for 48 hours. The plates were then assayed using SteadyGlo and read on the Envision. Percent Stimulation and Inhibition were determined and analyzed using GraphPad Prism.

F876L-VP16 = molecular target: T2, F876L-VP16 (Homo sapiens, UniProt P10275, F877L); experiment: AR-VP16 DNA binding assay, HepG2; format: cell-based; conditions: HepG2, antagonist mode, 1 nM R1881, 48 hours
T2 construct: VP16 (fusion partner); expressed in transfected cells; host or cells: HepG2
T2 sequence (P10275 1-920 F877L): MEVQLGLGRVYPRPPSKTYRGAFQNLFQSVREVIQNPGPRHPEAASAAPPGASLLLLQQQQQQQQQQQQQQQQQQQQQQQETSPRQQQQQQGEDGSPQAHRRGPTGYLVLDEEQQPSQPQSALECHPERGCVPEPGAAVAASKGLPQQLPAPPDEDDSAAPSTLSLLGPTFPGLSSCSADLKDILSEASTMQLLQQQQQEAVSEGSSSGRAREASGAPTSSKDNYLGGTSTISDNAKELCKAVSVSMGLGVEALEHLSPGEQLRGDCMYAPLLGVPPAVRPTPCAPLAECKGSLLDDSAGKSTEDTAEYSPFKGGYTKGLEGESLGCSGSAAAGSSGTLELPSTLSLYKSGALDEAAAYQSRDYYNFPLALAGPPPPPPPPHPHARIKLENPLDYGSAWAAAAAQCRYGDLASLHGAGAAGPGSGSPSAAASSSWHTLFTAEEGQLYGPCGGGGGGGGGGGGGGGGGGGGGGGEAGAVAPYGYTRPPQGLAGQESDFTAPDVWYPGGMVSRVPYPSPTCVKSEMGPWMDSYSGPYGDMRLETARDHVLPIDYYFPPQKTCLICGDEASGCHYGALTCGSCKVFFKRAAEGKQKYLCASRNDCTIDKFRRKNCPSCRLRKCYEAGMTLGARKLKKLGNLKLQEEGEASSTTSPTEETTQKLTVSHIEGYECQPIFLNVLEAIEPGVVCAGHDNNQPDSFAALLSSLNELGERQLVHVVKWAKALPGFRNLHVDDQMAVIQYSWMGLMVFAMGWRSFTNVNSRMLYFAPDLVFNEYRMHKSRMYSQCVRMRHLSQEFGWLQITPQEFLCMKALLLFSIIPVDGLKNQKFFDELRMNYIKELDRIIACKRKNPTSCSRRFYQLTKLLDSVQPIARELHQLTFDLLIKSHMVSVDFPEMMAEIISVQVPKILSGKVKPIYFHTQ
Procedure: as §1

LNCaP SRα F876L tumors = experiment: Castrate resistant prostate cancer xenograft study; format: in vivo, mouse; conditions: castrate SHO mice
Procedure: Castrate six to seven week old male SCID Hairless Outbred mice (SHO, Charles Rivers Laboratories) were used as the host strain for xenograft studies. LNCaP SRα F876L tumors were established in host mice and the anti-tumor activity of compounds defined herein was determined. Dosing was initiated when tumors reached 100 to 200 mm^3 and animals were randomized to each of test groups (vehicle (HP-β-CD), 10 mg/kg, 30 mg/kg or 50 mg/kg compound). Compound was dosed orally, QD, for 28 days and tumor size was measured twice weekly along with body weight measurement. At the end of study, the TGI was calculated using initial tumor volume and final tumor volume measurements. TGI: 100−(Treated/Control*100). At the termination of study tumors were collected and stored for further analyses.

[1] = system: androgen dependent signaling; experiment: Hershberger assay; format: in vivo, rat; conditions: castrated rats, mean ± SD (n=6)
Procedure: The effect of AR antagonists on androgen dependent signaling in vivo was assessed using the Hershberger assay. In this assay, peripubertal castrated male Sprague-Dawley rats were administered AR antagonists described herein in the presence of testosterone (0.4 mg/kg testosterone propionate) and the weights of androgen dependent organs measured. Dosing was continued for 10 days and measurements taken 24 h after the last dose. The extent of antagonism of AR and consequent inhibition of organ growth was evaluated by comparison to the castration control. Compounds of Formula (I) were dosed orally QD and an endpoint assessment made by change in weight of 5 androgen sensitive organs (ASO): Paired Cowper's Glands (CG), Seminal Vesicles with Fluids and Coagulating Glands (SVCG), Glans Penis (GP), Ventral Prostate (VP) and Levator Ani-Bulbocavernosus Complex (LABC)). According to assay guidelines, statistically significant suppression of ASO is required in 2 of 5 organs for a compound to be classified as an anti-androgen (analysis was performed by t-test/Mann-Whitney).
Compounds defined herein were administered at the indicated dose (mg/kg) and flutamide (FT), positive control, at 3 mg/kg. All compounds were co-administered with testosterone propionate (TP, 0.4 mg/kg) which was also administered alone, untreated control, (castrated only rats served as the control for complete androgen blockade). A statistically significant change in ASO achieved in at least 2 of 5 organs was indicative of an active compound.

[2] = 3 mg/kg orally QD 10 days with testosterone propionate 0.4 mg/kg
[3] = 10 mg/kg orally QD 10 days with testosterone propionate 0.4 mg/kg
[4] = 30 mg/kg orally QD 10 days with testosterone propionate 0.4 mg/kg

Row | Structure (SMILES) | IC50 (AR-VP16) [nM] | IC50 (F876L-VP16) [nM] | TGI (%) (LNCaP SRα F876L tumors; 10 mg/kg orally QD 28 days) | TGI (%) (LNCaP SRα F876L tumors; 30 mg/kg orally QD 28 days) | ASO Organ Growth (% of TP control) SVCG [1, 2] | ASO Organ Growth (% of TP control) VP [1, 2] | ASO Organ Growth (% of TP control) SVCG [1, 3] | ASO Organ Growth (% of TP control) VP [1, 3] | ASO Organ Growth (% of TP control) SVCG [1, 4] | ASO Organ Growth (% of TP control) VP [1, 4]
1 | N#Cc1ncc(N2C(=O)C3(CCC3)N(c3ccc(C(=O)NCCCO)c(F)c3)C2=S)cc1C(F)(F)F [Cpd 40, 4-[6-[6-cyano-5-(trifluoromethyl)-3-pyridyl]-5-oxo-7-thioxo-6,8-diazaspiro[3.4]octan-8-yl]-2-fluoro-N-(3-hydroxypropyl)benzamide] | 24 | 994 | – | – | – | – | – | – | – | –
2 | CN1CCC(Oc2ccc(N3C(=S)N(c4cnc(C#N)c(C(F)(F)F)c4)C(=O)C34CCC4)cc2)CC1 [Cpd 85, 5-[8-[4-[(1-methyl-4-piperidyl)oxy]phenyl]-5-oxo-7-thioxo-6,8-diazaspiro[3.4]octan-6-yl]-3-(trifluoromethyl)pyridine-2-carbonitrile] | – | – | 80.2 | 100.8 | 67.3 ± 20.2 % of TP control | 72.3 ± 18.5 % of TP control | 31.6 ± 37.7 % of TP control | 37.4 ± 25.6 % of TP control | 8.5 ± 14.7 % of TP control | 13.2 ± 19.2 % of TP control
3 | N#Cc1ncc(N2C(=O)C3(CCC3)N(c3ccc(OC4CCNCC4)cc3)C2=S)cc1C(F)(F)F [Cpd 35, 5-[5-oxo-8-[4-(4-piperidyloxy)phenyl]-7-thioxo-6,8-diazaspiro[3.4]octan-6-yl]-3-(trifluoromethyl)pyridine-2-carbonitrile] | 3390 | 2740 | – | 53 | – | – | – | – | 28.1 ± 19.5 % of TP control | 25.7 ± 22.9 % of TP control
